The record followed here is US6472418B1, “Non-peptide NK1 receptors antagonists” (Warner-Lambert Company, priority 1998, dated 2002).

Usually IC50 stands for the concentration that gives 50% inhibition.

T1 sequence (P25103 whole entry): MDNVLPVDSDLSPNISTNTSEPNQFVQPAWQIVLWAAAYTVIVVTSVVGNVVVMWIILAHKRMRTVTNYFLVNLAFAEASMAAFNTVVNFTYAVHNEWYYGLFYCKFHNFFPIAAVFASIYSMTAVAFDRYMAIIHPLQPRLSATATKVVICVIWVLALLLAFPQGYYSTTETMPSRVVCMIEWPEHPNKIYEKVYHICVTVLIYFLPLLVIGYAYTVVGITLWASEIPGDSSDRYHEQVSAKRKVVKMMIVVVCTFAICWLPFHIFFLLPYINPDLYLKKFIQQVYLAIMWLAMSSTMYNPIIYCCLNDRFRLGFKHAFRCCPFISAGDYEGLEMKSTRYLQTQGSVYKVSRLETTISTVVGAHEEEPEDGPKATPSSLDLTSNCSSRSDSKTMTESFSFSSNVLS

The assay has as its target T1, Human NK1 Receptor (Homo sapiens, UniProt P25103).
T1 construct: endogenous in cells; host or cells: Human lymphoma IM9 cells (whole cells)
The assay can be described thus: In Vitro Human NK1 Receptor Binding Assay ([125I]Bolton-Hunter substance P displacement, IM9 cells). The settings on record: human NK1 receptor, IM9 cells, [125I]Bolton-Hunter substance P; read-out: IC50 (nM) hNK1. The procedure, abridged: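 Test compounds competed with 0.05-0.1 nM [125I]Bolton-Hunter substance P for binding to intact IM9 cells over 50 min at 21° C, pH 7.4 buffer with MnCl2 and peptidase inhibitors. […] [Sar9, Met(O2)11] substance P gave non-specific binding. Bound counts were measured after filtration and fitted iteratively.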
With `CC(Cc1c[nH]c2ccccc12)(NCc1cc2ccccc2o1)C(=O)NCC(CC(=O)O)c1ccc(Cl)cc1` (centres unmarked) [compound 84, 4-[2-[(Benzofuran-2-ylmethyl)-amino]-3-(1H-indol-3-yl)-2-methyl-propionylamino]-3-(4-chloro-phenyl)-butyric acid], the IC50 is over 10000 nM.
Regarding `CC(Cc1c[nH]c2ccccc12)(NCc1cc2ccccc2o1)C(=O)NC1NC(=O)c2ccccc21` (centres unmarked) [compound 85], the half-maximal inhibitory concentration (IC50) amounted to 2440 nM.
Take `CC(Cc1c[nH]c2ccccc12)(NCc1cc2ccccc2o1)C(=O)NCCN1CCNC1=O` (centres unmarked) [compound 86, 2-[(Benzofuran-2-ylmethyl)-amino]-3-(1H-indol-3-yl)-2-methyl-N-[2-(2-oxo-imidazolidin-1-yl)-ethyl]-propionamide]: the IC50 is over 10000 nM.
As to `CC(Cc1c[nH]c2ccccc12)(NCc1cc2ccccc2o1)C(=O)NCCCN1CCN(c2ccccn2)CC1` (centres unmarked) [compound 87, 2-[(Benzofuran-2-ylmethyl)-amino]-3-(1H-indol-3-yl)-2-methyl-N-[3-(4-pyridin-2-yl-piperazin-1-yl)-propyl]-propionamide], the IC50 is over 10000 nM.
For `CC1CCCC(C)N1CCCCNC(=O)C(C)(Cc1c[nH]c2ccccc12)NCc1cc2ccccc2o1` (centres unmarked) [compound 88, 2-[(Benzofuran-2-ylmethyl)-amino]-N-[4-(2,6-dimethyl-piperidin-1-yl)-butyl]-3-(1H-indol-3-yl)-2-methyl-propionamide], the half-maximal inhibitory concentration (IC50) was over 10000 nM.
On to `CC(Cc1c[nH]c2ccccc12)(NCc1cc2ccccc2o1)C(=O)NC1(CN2CCCCC2)CCCCC1` (centres unmarked) [compound 89, 2-[(Benzofuran-2-ylmethyl)-amino]-3-(1H-indol-3-yl)-2-methyl-N-(1-piperidin-1-ylmethyl-cyclohexyl)-propionamide], for which the IC50 was found to be 6740 nM.
`CC(Cc1c[nH]cn1)NC(=O)C(C)(Cc1c[nH]c2ccccc12)NCc1cc2ccccc2o1` (centres unmarked) [compound 90, 2-[(Benzofuran-2-ylmethyl)-amino]-N-[2-(1H-imidazol-4-yl)-1-methyl-ethyl]-3-(1H-indol-3-yl)-2-methyl-propionamide]: the IC50 is over 10000 nM.
As to `CC(Cc1c[nH]c2ccccc12)(NCc1cc2ccccc2o1)C(=O)NCCCN1CCCC1=O` (centres unmarked) [compound 91], the IC50 was over 10000 nM.
Consider `CC(C)NC(=O)C(C)(Cc1c[nH]c2ccccc12)NCc1cc2ccccc2o1` (centres unmarked) [compound 92, 2-[(Benzofuran-2-ylmethyl)-amino]-3-(1H-indol-3-yl)-N-isopropyl-2-methyl-propionamide], for which the 50% inhibitory concentration (IC50) was 2290 nM.
Turning to `CC(CN1CCCC1=O)NC(=O)C(C)(Cc1c[nH]c2ccccc12)NCc1cc2ccccc2o1` (centres unmarked) [compound 93, 2-[(Benzofuran-2-ylmethyl)-amino]-3-(1H-indol-3-yl)-2-methyl-N-[1-methyl-2-(2-oxo-pyrrolidin-1-yl)-ethyl]-propionamide], the 50% inhibitory concentration (IC50) is over 10000 nM.
With `CC1CCC(C)N1CCCCNC(=O)C(C)(Cc1c[nH]c2ccccc12)NCc1cc2ccccc2o1` (centres unmarked) [compound 94, 2-[(Benzofuran-2-ylmethyl)-amino]-N-[4-(2,5-dimethyl-pyrrolidin-1-yl)-butyl]-3-(1H-indol-3-yl)-2-methyl-propionamide], the IC50 is over 10000 nM.
Turning to `CC(Cc1c[nH]c2ccccc12)(NCc1cc2ccccc2o1)C(=O)NCC(=O)c1nc[nH]c1N` (centres unmarked) [compound 95, N-[2-(5-Amino-1H-imidazol-4-yl)-2-oxo-ethyl]-2-[(benzofuran-2-ylmethyl)-amino]-3-(1H-indol-3-yl)-2-methyl-propionamide], the 50% inhibitory concentration (IC50) is over 10000 nM.
`CC(Cc1c[nH]c2ccccc12)(NCc1cc2ccccc2o1)C(=O)NCCN1CCOC1=O` (centres unmarked) [compound 96, 2-[(Benzofuran-2-ylmethyl)-amino]-3-(1H-indol-3-yl)-2-methyl-N-[2-(2-oxo-oxazolidin-3-yl)-ethyl]-propionamide]: the IC50 was over 10000 nM.
In the case of `CC(Cc1c[nH]c2ccccc12)(NCc1cc2ccccc2o1)C(=O)NCCc1c[nH]cn1` (centres unmarked) [compound 97, 2-[(Benzofuran-2-ylmethyl)-amino]-N-[2-(1H-imidazol-4-yl)-ethyl]-3-(1H-indol-3-yl)-2-methyl-propionamide], the concentration for half-maximal inhibition (IC50) is over 10000 nM.
